The values below come from patent US12459951B2, “Compounds that interact with RAS superfamily proteins for treatment of cancers, inflammatory diseases, rasopathies, and fibrotic disease” (SHY Therapeutics, LLC, priority 2022, dated 2025).

The test system of data set [1] is JNK phosphorylation. The data set is described as follows: JNK Activation Assay (western blot), Panc-1. Conditions: at 10 μM, Panc-1 pancreatic cancer cell line; starred symbols = activation. In kind it is cell-based, human. In short, it runs like this: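 KRas G12C Panc-1 cells treated 6 h at 37 °C with compound at 10 μM (0.3% DMSO), or serial dilutions for IC50. In Method 1 cells were serum-starved overnight (0.5% FBS) then stimulated with 1.5 ng/ml EGF for 15 min; Method 2 used 10% FBS without stimulation. Phospho-JNK (Thr183/Tyr185) measured by western blot.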

Data set [2] addresses T1, Rheb (Homo sapiens, UniProt Q15382).
T1 construct: made in house
Nature of the data set: Rheb GTP Binding Domain Inhibition Assay. Conditions: read-out: Rheb: % inh. In short, it runs like this: (§1)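 His-tagged cdc42 or Rheb (10–30 μg/mL) bound to nickel plates, then exposed to compound (20 μM, or serial dilutions for IC50) in 1% DMSO for 3 h at room temperature, ±Sos during final hour. Cy3- or Cy5-GTP (100 nM) added for 45 min; bound labelled GTP read by fluorescence after washes.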

The target of data set [3] is T2, cdc42 (Homo sapiens, UniProt P60953).
T2 construct: made in house
T2 sequence (P60953 whole entry): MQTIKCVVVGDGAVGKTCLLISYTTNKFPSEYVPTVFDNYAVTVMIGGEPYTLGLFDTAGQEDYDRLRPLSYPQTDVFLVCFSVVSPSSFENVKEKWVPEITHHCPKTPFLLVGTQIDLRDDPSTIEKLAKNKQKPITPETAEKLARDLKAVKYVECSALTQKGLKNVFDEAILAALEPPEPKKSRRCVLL
Nature of the data set: Cdc42 GTP Binding Domain Inhibition Assay. Conditions: read-out: Cdc42: % inh. The method in brief: as §1

Data set [4] can be described thus: Kinetic Solubility Assay in pH 7.4 Buffer + 2% DMSO. In kind it is physicochemical. Conditions: phosphate-buffered saline pH 7.4 with 2% DMSO, aqueous buffer, kinetic from dmso stock, 25° C., two hours. In short, it runs like this: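 Compound from 20 mM DMSO stock diluted to nominal 400 μM in PBS pH 7.4 with 2% DMSO, in duplicate, shaken 2 h at 25° C., then filtered. Filtrate quantified by UV absorbance (230-550 nm) against 10-200 μM calibration curves; effective range ~2-400 μM.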

T1 sequence (Q15382 whole entry): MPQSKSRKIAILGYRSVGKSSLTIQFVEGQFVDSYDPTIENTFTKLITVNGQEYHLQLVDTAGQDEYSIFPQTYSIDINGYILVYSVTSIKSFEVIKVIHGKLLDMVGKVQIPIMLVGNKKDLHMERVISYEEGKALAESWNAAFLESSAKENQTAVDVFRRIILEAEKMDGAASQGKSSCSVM

On to `COc1cc(Nc2nc(-c3nccn3C)nn3cc(-c4ccn(C)n4)c(C)c23)ncn1` [Compound 63, N-(6-Methoxypyrimidin-4-yl)-5-methyl-2-(1-methyl-1H-imidazol-2-yl)-6-(1-methyl-1H-pyrazol-3-yl)pyrrolo[2,1-f][1,2,4]triazin-4-amine], for which the “% inh of JNK in Panc-1” value in data set [1] is recorded as “H* (H* ≥ 100% activation)”. The inhibition at 20 µM in data set [2] was 50 to 75%; in data set [3] it was 76 to 100%. Further, the solubility at 2 h in data set [4] was under 10 µM.
Taken in the same sequence, the figures for `COc1ccnc(Nc2nc(-c3nccn3C)nn3cc(-c4ccn(C(C)C)n4)c(C)c23)n1` [Compound 53, 6-(1-Isopropyl-1H-pyrazol-3-yl)-N-(4-methoxypyrimidin-2-yl)-5-methyl-2-(1-methyl-1H-imidazol-2-yl)pyrrolo[2,1-f][1,2,4]triazin-4-amine] were “H* (H* ≥ 100% activation)”, 76 to 100%, 50 to 75% and 10 to 30 µM.
As to `Cc1[nH]nc(Nc2nc(-c3nccn3C)nn3cc(-c4ccn(C)n4)c(C)c23)c1C` [Compound 267, N-(4,5-Dimethyl-1H-pyrazol-3-yl)-5-methyl-2-(1-methyl-1H-imidazol-2-yl)-6-(1-methyl-1H-pyrazol-3-yl)pyrrolo[2,1-f][1,2,4]triazin-4-amine], the solubility at 2 h in data set [4] was 10 to 30 µM.
On the same count and under the same terms, then `Cc1c(-c2ccn(C)n2)cn2nc(-c3nccn3C)nc(Nc3cc(C(C)C)[nH]n3)c12` [Compound 268, N-(5-Isopropyl-1H-pyrazol-3-yl)-5-methyl-2-(1-methyl-1H-imidazol-2-yl)-6-(1-methyl-1H-pyrazol-3-yl)pyrrolo[2,1-f][1,2,4]triazin-4-amine], with under 10 µM.
Take `COc1ccnc(Nc2nc(-c3nccn3C)nn3cc(-c4ccn(C(C)C)n4)c(C)c23)c1` [Compound 58, 6-(1-Isopropyl-1H-pyrazol-3-yl)-N-(4-methoxypyridin-2-yl)-5-methyl-2-(1-methyl-1H-imidazol-2-yl)pyrrolo[2,1-f][1,2,4]triazin-4-amine]: the “% inh of JNK in Panc-1” value in data set [1] is recorded as “H* (H* ≥ 100% activation)”. The inhibition at 20 µM in data set [2] and in data set [3] was 76 to 100% in each case. For the same molecule, the solubility at 2 h in data set [4] lay in the range of 10 to 30 µM.
As for `Cc1c(-c2ccn(C(C)C)n2)cn2nc(-c3nccn3C)nc(Nc3ccncn3)c12` [Compound 55, 6-(1-Isopropyl-1H-pyrazol-3-yl)-5-methyl-2-(1-methyl-1H-imidazol-2-yl)-N-(pyrimidin-4-yl)pyrrolo[2,1-f][1,2,4]triazin-4-amine], the “% inh of JNK in Panc-1” value in data set [1] is reported as “H* (H* ≥ 100% activation)”. The figures for the inhibition at 20 µM in data set [2] and in data set [3] were 76 to 100% and 50 to 75%, respectively. Also, the solubility at 2 h in data set [4] lay within 10 to 30 µM.
In the case of `Cc1cc(Nc2nc(-c3nccn3C)nn3cc(-c4ccn(C)n4)c(C)c23)n[nH]1` [Compound 255, 5-Methyl-2-(1-methyl-1H-imidazol-2-yl)-6-(1-methyl-1H-pyrazol-3-yl)-N-(5-methyl-1H-pyrazol-3-yl)pyrrolo[2,1-f][1,2,4]triazin-4-amine], the solubility at 2 h in data set [4] was over 30 µM.
As for `CCOc1cc(Nc2nc(-c3nccn3C)nn3cc(-c4ccn(C)n4)c(C)c23)n[nH]1` [Compound 260, N-(5-Ethoxy-1H-pyrazol-3-yl)-5-methyl-2-(1-methyl-1H-imidazol-2-yl)-6-(1-methyl-1H-pyrazol-3-yl)pyrrolo[2,1-f][1,2,4]triazin-4-amine], the solubility at 2 h in data set [4] is under 10 µM.
For the molecule `Cc1c(-c2ccn(C(C)C)n2)cn2nc(-c3nccn3C)nc(Nc3ncccn3)c12` [Compound 54, 6-(1-Isopropyl-1H-pyrazol-3-yl)-5-methyl-2-(1-methyl-1H-imidazol-2-yl)-N-(pyrimidin-2-yl)pyrrolo[2,1-f][1,2,4]triazin-4-amine], the “% inh of JNK in Panc-1” value in data set [1] is listed as “H* (H* ≥ 100% activation)”. Moreover, the values for the inhibition at 20 µM in data set [2] and in data set [3] were 76 to 100% and 50 to 75%, respectively. Besides, the solubility at 2 h in data set [4] was under 10 µM.
With `Cc1c(-c2ccn(C)n2)cn2nc(-c3nccn3C)nc(Nc3cc(-c4ccccn4)[nH]n3)c12` [Compound 265, 5-Methyl-2-(1-methyl-1H-imidazol-2-yl)-6-(1-methyl-1H-pyrazol-3-yl)-N-(5-(pyridin-2-yl)-1H-pyrazol-3-yl)pyrrolo[2,1-f][1,2,4]triazin-4-amine], in data set [4], the solubility at 2 h is under 10 µM.
`COc1cc(-c2cn3nc(-c4nccn4C)nc(Nc4cc(OC)ncn4)c3c2C)ccn1` [Compound 50, 6-(2-Methoxypyridin-4-yl)-N-(6-methoxypyrimidin-4-yl)-5-methyl-2-(1-methyl-1H-imidazol-2-yl)pyrrolo[2,1-f][1,2,4]triazin-4-amine]: the inhibition at 20 µM in data set [2] and in data set [3] was 26 to 49% each time. Besides, the solubility at 2 h in data set [4] was under 10 µM.
As to `COc1cc(Nc2nc(-c3nccn3C)nn3cc(-c4ccn(C)n4)c(C)c23)n[nH]1` [Compound 252, N-(5-Methoxy-1H-pyrazol-3-yl)-5-methyl-2-(1-methyl-1H-imidazol-2-yl)-6-(1-methyl-1H-pyrazol-3-yl)pyrrolo[2,1-f][1,2,4]triazin-4-amine], in data set [4], the solubility at 2 h was under 10 µM.
For the molecule `Cc1c(-c2ccn(C(C)C)n2)cn2nc(-c3nccn3C)nc(Nc3ccccn3)c12` [Compound 57, 6-(1-Isopropyl-1H-pyrazol-3-yl)-5-methyl-2-(1-methyl-1H-imidazol-2-yl)-N-(pyridin-2-yl)pyrrolo[2,1-f][1,2,4]triazin-4-amine], in data set [1], the “% inh of JNK in Panc-1” value was “H* (H* ≥ 100% activation)”. Further, the inhibition at 20 µM in data set [2] and in data set [3] was 76 to 100% each time. The solubility at 2 h in data set [4] fell in the range of 10 to 30 µM.
On to `Cc1c(-c2ccn(C)n2)cn2nc(-c3nccn3C)nc(Nc3cc(-c4ccccn4)ccn3)c12` [Compound 248, N-([2,4′-Bipyridin]-2′-yl)-5-methyl-2-(1-methyl-1H-imidazol-2-yl)-6-(1-methyl-1H-pyrazol-3-yl)pyrrolo[2,1-f][1,2,4]triazin-4-amine], for which the solubility at 2 h in data set [4] was under 10 µM.
On to `Cc1c(-c2ccn(C)n2)cn2nc(-c3nccn3C)nc(Nc3cc(-c4cccnc4)ccn3)c12` [Compound 250, N-([3,4′-Bipyridin]-2′-yl)-5-methyl-2-(1-methyl-1H-imidazol-2-yl)-6-(1-methyl-1H-pyrazol-3-yl)pyrrolo[2,1-f][1,2,4]triazin-4-amine], for which the solubility at 2 h in data set [4] is under 10 µM.
As to `Cc1c(-c2ccn(C(C)C)n2)cn2nc(-c3nccn3C)nc(Nc3cnccn3)c12` [Compound 62, 6-(1-Isopropyl-1H-pyrazol-3-yl)-5-methyl-2-(1-methyl-1H-imidazol-2-yl)-N-(pyrazin-2-yl)pyrrolo[2,1-f][1,2,4]triazin-4-amine], in data set [1], the “% inh of JNK in Panc-1” value is on record as “H* (H* ≥ 100% activation)”. The inhibition at 20 µM in data set [2] was 0%; in data set [3], 1 to 25%. Further, in data set [4], the solubility at 2 h was under 10 µM.
As for `Cc1c(-c2ccn(C(C)C)n2)cn2nc(-c3nccn3C)nc(Nc3nnco3)c12` [Compound 59, N-(6-(1-Isopropyl-1H-pyrazol-3-yl)-5-methyl-2-(1-methyl-1H-imidazol-2-yl)pyrrolo[2,1-f][1,2,4]triazin-4-yl)-1,3,4-oxadiazol-2-amine], the “% inh of JNK in Panc-1” value in data set [1] is on record as “H* (H* ≥ 100% activation)”. Further, the inhibition at 20 µM in data set [2] and in data set [3] was 50 to 75% in each case. In addition, in data set [4], the solubility at 2 h is under 10 µM.
For `Cc1c(-c2ccn(C(C)C)n2)cn2nc(-c3nccn3C)nc(Nc3cc(C4CC4)no3)c12` [Compound 69, 3-Cyclopropyl-N-(6-(1-isopropyl-1H-pyrazol-3-yl)-5-methyl-2-(1-methyl-1H-imidazol-2-yl)pyrrolo[2,1-f][1,2,4]triazin-4-yl)isoxazol-5-amine], in data set [1], the “% inh of JNK in Panc-1” value was “H* (H* ≥ 100% activation)”. For the same molecule, the inhibition at 20 µM in data set [2] was 1 to 25%; in data set [3], 0%.

The solubility is the dissolved amount per volume that the medium holds.
